According to patent US20070060636A1, “High enantiomeric purity dexanabinol for pharmaceutical compositions” (priority 2002, published 2007):
Where a name gives a salt, the structure may show the parent alone. Read-outs that look alike come from different tables or passages of the source.

Tests used:
rats [1] = conditions: 10 μg/kg i.v., cited from earlier work
[2] = threshold for psychomimetic effects in humans; assay type: in vivo; conditions: worked out from THC threshold and 200 fold psychoactivity
Excerpt: Psychoactive cannabinoids have a variety of pharmacological effects that are evoked through interactions with the CB1 receptors predominantly expressed in the brain. The central nervous system effects that occur after in vivo exposure to HU-210 include euphoria, hypokinesia, hypothermia, anti-nociception, and catalepsy. Hypokinesia, hypothermia, anti-nociception, and catalepsy are the activities that form the basis of the “Tetrad assay” of CB1 mediated activity. […] The threshold for psychomimetic effects of oral THC in humans is in the range of 10-15 mg THC in an adult, i.e from about 0.16 to about 0.25 mg THC/kg body weight for adults of approximately 60 kg (“Cannabis and Cannabinoids, pharmacology, toxicology and therapeutic potential” edited by Grotenhermen and Russo, the Haworth Integrative Healing Press; Chapter 31 pp 345 and 351).

[3] = i.v.; cited from earlier work
rat model = conditions: cited from earlier work
[4] = cited from earlier work
rats [5] = conditions: conscious rats; cited from earlier work
[6] = oral, adult; cited from earlier work
[7] = tested on: intra-ocular pressure (IOP); test: IOP lowering after topical administration in normotensive rabbits; assay type: in vivo, New Zealand White albino rabbits; conditions: commercially available drugs, topical
Procedure: New Zealand White albino rabbits weighing 2-2.5 kg were acclimatized in our animal facility for at least a week prior to IOP measurements. Drug, saline and blank-vehicle groups (n=8-12 animals per group) were included. In most experiments, 50 μl drops were applied at 09:00 and measurements were taken 1 hour, 3, 5, and 7 hours later. Baseline IOP was individualized for each animal and time point prior to drug testing. IOP was measured by a Digilab Pneumatonometer, Model 30R. ΔIOP was calculated by subtracting the baseline IOP from IOP value measured after drug application at a corresponding time point. Maximal ΔIOP and area under the ΔIOP×hours curve (AUC) were calculated and averaged for each group. Data of IOP, AUC, blood pressure and toxicity were analyzed by the Wilcoxon-Rank test.

SMILES: CCCCCCC(C)(C)c1cc(O)c2c(c1)OC(C)(C)[C@@H]1CC=C(CO)C[C@@H]21 [HU-210, 1,1-dimethylheptyl-(3R,4R)-7-hydroxy-Δ^6-tetrahydrocannabinol]
- reduction of mean blood pressure (rats [1]): 57±5 mm Hg
- systemic vascular resistance index (rats [1]): without significantly affecting
- cardiac index after drug (rats [1]; from 37±1): 23±1 mL/min/100 g
- maximal tolerated dose (theoretical) [2]: less than 1.25 μg/kg body weight
- lowest administered dose at which hypotensive effect is detected [3]: 1 µg/kg
- PaCO2 after drug (rat model; from 32±0.7): 45.7±1.6 mmHg
- mean arterial blood pressure after drug (rat model; from 142±1): 105±6 mm Hg
- heart rate after drug (rat model; from 484±6): 232±18 beats/min
- change in cerebral glucose use (rat model; frontal cortex): −19%
- cerebral glucose use after drug (rat model; frontal cortex, from 69±1): 55±3 μmol.100 g−1.min-1
- change in cerebral glucose use (rat model; occipital cortex): −31%
- cerebral glucose use after drug (rat model; occipital cortex, from 60±1): 41±2 μmol.100 g−1.min−1
- psychoactivity in animals relative to Δ^9-THC ([4]; in vivo): approximately 200 fold
- psychoactivity compared with HU-211 ([4]; series of animal tests): a thousand times more psychoactive
- psychoactivity compared with Δ^9-THC ([4]; series of animal tests): a hundred times more psychoactive
- bradycardia still present after drug administration (rats [5]): ≥ 8 h
- duration of hypotensive effects (rats [5]): 2 h

SMILES: CCCCCc1cc(O)c2c(c1)OC(C)(C)[C@@H]1CCC(C)=C[C@@H]21 [THC, Δ^9-tetrahydrocannabinol]
- threshold for psychomimetic effects [6]: 10 to 15 mg

SMILES: CC(C)(C)NC[C@H](O)COc1nsnc1N1CCOCC1 [Timolol, reference compound]
- AUC (ΔIOP×hours) [7]: 7.3±3.0 mmHg×Hours

SMILES: CC(C)(C)NC[C@H](O)COc1cccc2c1CCCC2=O [levobunolol HCl, reference compound]
- AUC (ΔIOP×hours) [7]: 13.3±1.5 mmHg×Hours
